Experimental findings from patent US6518270B1, “Heterocyclic compounds for inhibition of gastric acid secretion, processes for their preparation and pharmaceutical compositions thereof” (AstraZeneca AB, priority 1997, dated 2003) are described below.

Molecules are shown by their SMILES.

A word on the IC50: it is the midpoint of a concentration-inhibition curve. Low readings indicate greater potency, high ones weaker potency.

For this assay, the target named is T1, H+,K+-ATPase.
T1 construct: from tissue
Kind of assay: Determination of H+,K+-ATPase activity. Conditions: membrane vesicles, 15 min at +37° C., pH 7.4, 10 mM KCl, 2 mM ATP; release of inorganic phosphate. The format is biochemical. Here is the method: Determination of H^+,K^+-ATPase Activity
Membrane vesicles (2.5 to 5 μg) were incubated for 15 min at +37° C. in 18 mM Pipes/Tris buffer pH 7.4 containing 2 mM MgCl2, 10 mM KCl and 2 mM ATP. The ATPase activity was estimated as release of inorganic phosphate from ATP, as described by LeBel et al. (1978) Anal. Biochem. 85, 86-89.

T1 sequence (P20648 whole entry): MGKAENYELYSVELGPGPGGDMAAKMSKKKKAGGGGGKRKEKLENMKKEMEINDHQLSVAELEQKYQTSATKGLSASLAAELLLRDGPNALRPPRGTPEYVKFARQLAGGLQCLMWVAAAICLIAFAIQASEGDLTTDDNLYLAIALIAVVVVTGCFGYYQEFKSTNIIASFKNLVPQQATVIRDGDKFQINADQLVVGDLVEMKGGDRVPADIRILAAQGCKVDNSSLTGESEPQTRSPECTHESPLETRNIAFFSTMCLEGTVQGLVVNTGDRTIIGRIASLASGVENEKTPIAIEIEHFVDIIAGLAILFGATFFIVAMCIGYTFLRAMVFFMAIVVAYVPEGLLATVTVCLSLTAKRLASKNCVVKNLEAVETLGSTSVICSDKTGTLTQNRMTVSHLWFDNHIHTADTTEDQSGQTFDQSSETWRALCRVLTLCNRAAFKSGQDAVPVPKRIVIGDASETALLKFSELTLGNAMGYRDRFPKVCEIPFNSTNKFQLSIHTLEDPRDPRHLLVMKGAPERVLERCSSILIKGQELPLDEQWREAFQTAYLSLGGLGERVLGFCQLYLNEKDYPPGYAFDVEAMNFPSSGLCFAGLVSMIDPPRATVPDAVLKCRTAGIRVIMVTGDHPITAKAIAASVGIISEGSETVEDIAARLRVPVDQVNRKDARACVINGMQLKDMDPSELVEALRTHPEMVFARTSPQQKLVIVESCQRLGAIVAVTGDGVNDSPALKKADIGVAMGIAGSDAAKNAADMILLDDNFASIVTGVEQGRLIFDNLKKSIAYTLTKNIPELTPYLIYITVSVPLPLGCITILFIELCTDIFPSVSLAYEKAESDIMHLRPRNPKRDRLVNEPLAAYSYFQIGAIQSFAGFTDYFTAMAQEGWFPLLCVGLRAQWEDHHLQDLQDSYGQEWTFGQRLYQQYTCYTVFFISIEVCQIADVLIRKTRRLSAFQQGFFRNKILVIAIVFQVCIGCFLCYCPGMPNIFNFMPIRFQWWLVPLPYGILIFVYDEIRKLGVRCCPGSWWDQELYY
T1 sequence (P51164 whole entry partner): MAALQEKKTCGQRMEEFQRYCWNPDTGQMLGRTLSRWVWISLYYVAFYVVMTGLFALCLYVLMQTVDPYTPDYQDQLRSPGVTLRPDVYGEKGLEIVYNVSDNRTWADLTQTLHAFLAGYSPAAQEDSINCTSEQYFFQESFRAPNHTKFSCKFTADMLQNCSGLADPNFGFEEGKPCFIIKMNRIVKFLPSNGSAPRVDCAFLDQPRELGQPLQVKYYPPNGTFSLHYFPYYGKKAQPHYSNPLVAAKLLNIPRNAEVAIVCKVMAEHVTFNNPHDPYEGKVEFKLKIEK

In turn, `Cc1cccc(C)c1CNc1nccn2c(C)c(C)nc12` [Example 1, 2,3-dimethyl-8-(2,6-dimethylbenzylamino)imidazo [1,2-a]pyrazine] showed an IC50 of 160 nM. Compound `Cc1cccc(C)c1COc1nccn2c(C)c(C)nc12` [Example 2, 2,3-dimethyl-8-(2,6-dimethylbenzyloxy)imidazo[1,2-a]pyrazine] gave an IC50 of 2780 nM.
